In ChEMBL document CHEMBL6092209, “New Discorhabdin D Analogues from Latrunculia spp. Sponges” (2024) one finds Activity and GI50 data, which are given here for eleven compounds.

The subject of test [1] is Panel NCI-60 (60 carcinoma cell lines). Briefly: Growth inhibition of human Panel NCI-60 (60 carcinoma cell lines) cells at 10 uM. Format: functional, cell-based.
For test [2] the test system is unchanged. In words: Growth inhibition of human Panel NCI-60 (60 carcinoma cell lines) cells. Format: functional.

Activity calls are given as the source filed them. No cut-off for these calls is given here.

Broadly, the GI50 is the concentration giving 50% growth inhibition. Turning to `N[C@@H](CS[C@H]1[C@H]2C(=O)C=C3S[C@H]4C[C@]31C1=C(N4)C(=O)c3[nH]cc4c3C1=[N+]2CC4)C(=O)NCC(=O)O`, in test [1], the outcome was inactive. Further, the GI50 in test [2] is more than 10 µM.

The compound `COc1cccc2c1C(=O)c1c(O)c3c(c(O)c1C2=O)C[C@@](O)(C(=O)CO)C[C@@H]3O[C@H]1C[C@H](N)[C@H](O)[C@H](C)O1` [DOXORUBICIN] gave a GI50 in test [2] of 0.12 µM. Take `O=C1C=C(S[C@H]2[C@H]3C(=O)C=C4S[C@H]5C[C@]42C2=C(N5)C(=O)c4[nH]cc5c4C2=[N+]3CC5)[C@]2(C=C1Br)CCNC1=C2C2=NCCc3c[nH]c(c32)C1=O`: in test [2], halving of growth (GI50) required 4.8 µM. This GI50 is about 40-fold higher than that of the compound before. `N[C@H](CS[C@H]1[C@H]2C(=O)C=C3S[C@H]4C[C@]31C1=C(N4)C(=O)c3[nH]cc4c3C1=[N+]2CC4)C(=O)O`: in test [1], the result was inactive. In test [2], this compound displayed a GI50 of more than 10 µM.

`O=C1C2=C3C4=[N+](CCc5c[nH]c1c54)[C@@H]1C(=O)C=C4S[C@@H](C[C@@]43[C@H]1O)N2` had a GI50 in test [2] of 0.79 µM. As to `N[C@@H](CS[C@H]1[C@H]2C(=O)C=C3S[C@H]4C[C@]31C1=C(N4)C(=O)c3[nH]cc4c3C1=[N+]2CC4)C(=O)O`, the outcome in test [1] was inactive. In test [2], this compound registered a GI50 of more than 10 µM. Consider `O=C(O)CN[C@H]1[C@H]2C(=O)C=C3S[C@H]4C[C@]31C1=C(N4)C(=O)c3[nH]cc4c3C1=[N+]2CC4`, for which the GI50 in test [2] amounted to 16.9 µM. For `N[C@@H](CCC(=O)N[C@@H](CS[C@H]1[C@H]2C(=O)C=C3S[C@H]4C[C@]31C1=C(N4)C(=O)c3[nH]cc4c3C1=[N+]2CC4)C(=O)NCC(=O)O)C(=O)O`, the outcome in test [1] was inactive. The GI50 in test [2] was more than 10 µM. As for `COC(=O)CN[C@H]1[C@H]2C(=O)C=C3S[C@H]4C[C@]31C1=C(N4)C(=O)c3[nH]cc4c3C1=[N+]2CC4`, the GI50 in test [2] worked out at 2.45 µM.

With `Cn1cnc(S[C@H]2[C@H]3C(=O)C=C4S[C@H]5C[C@]42C2=C(N5)C(=O)c4[nH]cc5c4C2=[N+]3CC5)c1C[C@H](N)C(=O)O`, in test [2], the GI50 is more than 10 µM. In test [2], `O=C1C2=C3C4=[N+](CCc5c[nH]c1c54)[C@H]1C[C@@]34C[C@@H](N2)SC4=CC1=O` registered a GI50 of 0.8 µM.
